# Data: PubChem BioAssay AID624491 (Broad Institute, 2012)
# Activity calls are given as the source filed them.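 The calls were made as follows: active = fitted curve crossing a set activation limit at or below the highest valid dose tested; inconclusive = flat fit at 30 to 70% activation, or poor fit; inactive = the rest, including signal decreases.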
# Test system: D54 ERlucT glycosylation luciferase reporter, luminescence, 24 h
# Assay: N-linked glycosylation inhibitors, luciferase reporter, dose response, D54 ERlucT cells, luminescence, cherry-picks (AID 624491);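 also: signal gain reflects blocked N-linked glycosylation of a luciferase reporter; actives raise luciferase signal so AC26 marks activators of the reporter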
row,SMILES,AC26
1,C=CCOc1ccc(/C=C2\SC(N3CCCCC3)=NC2=O)cc1,5420 nM
2,COc1cc(OC)c2nc(C)c3c(c2c1)N(c1ccc(O)cc1)CC3,1190 nM
3,CCn1ncc(C2=NOC(C(=O)NCc3ccccc3)C2)c1C (centres undefined),413 nM
4,CCN(CC)c1ccc(/C=N\NC(=O)c2cccc3cc[nH]c23)cc1,1860 nM
5,CCOC(=O)C1=CC[C@@H](c2ccncc2)N(S(=O)(=O)c2ccc(C)cc2)C1,12100 nM
6,O=C(C[C@@H]1C/C=C/CC[C@H](Cc2ccc(F)cc2)C(=O)OC[C@@H](Cc2ccccc2)NC1=O)N[C@H](CO)Cc1ccccc1,4880 nM
7,Cc1cccn2c(=O)c3cc(C(=O)NC4CCCC4)n(C)c3nc12,15100 nM
8,CCOC(=O)c1[nH]c(C)c(C(=O)Nc2ccc(C)c(F)c2)c1C,5420 nM
9,O=C(OCn1ncc(Cl)c(Cl)c1=O)c1ccc(C(F)(F)F)cc1,1130 nM
10,O=C(COC(=O)Cn1cnc2ccccc21)Nc1cccc2c1C(=O)c1ccccc1C2=O,2840 nM
11,COc1ccc(C(=O)c2ccc(N(C)C)cc2)c2ccccc12,2000 nM
12,CC(C)COc1ccc(C(=O)OCC(=O)NCc2cccs2)cc1,1750 nM
13,Nc1cccc2c1C(=O)N(C(=O)/C=C/c1ccc(F)cc1)C2=O,6790 nM
14,C[C@@]12C(=O)Nc3cc(Cl)ccc3C(=O)N1[C@H]1c3ccccc3OC[C@@H]1[C@@H]2c1ccccc1,397 nM
15,O=C(NCc1ccco1)c1nn2c(C(F)(F)F)cc(-c3cccs3)nc2c1Br,3250 nM
16,Cc1ccnc(NC(=O)C(Cc2ccccc2)NC(=O)c2ccccc2)c1 (centres undefined),564 nM
17,COc1cc(C(=O)Nc2ccc3c(c2)CCN3C(C)=O)cc(OC)c1OC,1240 nM
18,COc1ccc2c(-c3cc4ccc(OCc5ccc(F)cc5)cc4oc3=O)cc(=O)oc2c1,4410 nM
19,CCN(CC)CCN1C(=O)c2cccc3cc(N)cc(c23)C1=O,1140 nM
20,CC(=O)Nc1ccc(C(=O)N/N=C/c2ccccc2OCc2ccccc2)cc1,1490 nM
21,COC(=O)c1ccccc1-c1ccc(C(c2c(C)[nH][nH]c2=O)c2c(C)[nH][nH]c2=O)o1,5960 nM
22,Cn1c(=O)n(C)c2cc(C(=O)Nc3ccc4c(c3)OCO4)ccc21,1740 nM

row,SMILES,AC26
1,Cn1cccc1/C=C1\C(=O)NC(=O)N(Cc2ccccc2Cl)C1=O,2490 nM
2,CC(C)c1ccc(OCc2ccc(C(=O)N3CCCC3)o2)cc1,4230 nM
3,O=S(=O)([N-]c1nc2ccccc2nc1-n1cc[n+](Cc2ccccc2)c1)c1ccc(Cl)cc1,101 nM
4,CC1CN(C(=O)c2cc(-c3ccncc3)nc3ccccc23)CC(C)O1 (centres undefined),2020 nM
5,COc1ccc(CNC(=O)C/C(C)=N/NC(=O)COc2ccc(C)cc2Br)cc1,5660 nM
6,Cc1ccc(C)c(OCC(O)CN2CCN(CCN3C(=O)c4cccc5cccc(c45)C3=O)CC2)c1 (centres undefined),755 nM
7,Cc1cc(NC(=O)CSc2nc(-c3ccco3)cc(C(F)(F)F)n2)no1,565 nM
8,CCC(C)Nc1nc2ccccc2n2c(C)nnc12 (centres undefined),1500 nM
9,COc1cc2c(cc1OC)C(=O)N1[C@H]3c4ccccc4OC[C@@H]3[C@H](c3ccccc3)[C@]1(C)C(=O)N2,42.6 nM
10,COc1ccc(CCCC(=O)NCc2ccccc2)cc1C,6540 nM
11,Cn1nc(-c2ccccc2)c(CSc2ccccc2Cl)c1Cl,6120 nM
12,CC12CC[C@H]3[C@@H](CCC4(O)C[C@H](O)CCC34/C=N/NC(=O)c3ccccc3O)C1(O)CCC2C1=CC(=O)OC1 (some centres undefined),6060 nM
13,Clc1ccc(C2=Nn3c(nnc3-c3cc(-c4ccccc4)n[nH]3)SC2)cc1,5130 nM
14,CO/N=C\CC(=O)Nc1ccc(Cl)cc1Cl,1070 nM
15,COC(=O)/C=C1\C(=O)N(c2nc3ccccc3s2)C(=S)N1c1ccc(F)cc1,2300 nM
16,COc1cc2c(cc1OC)C(c1cccs1)N(C(=O)c1cccc(S(=O)(=O)N(C)C)c1)CC2 (centres undefined),1320 nM
17,O=C(NC1CCCCCC1)c1c2c(nc3ccccc13)CCN(Cc1ccccc1)C2,5800 nM
18,COc1ccc(C(=O)NCCN(C)C)c2nc3ccccc3cc12,128 nM
19,COc1ccc(-c2cc(C(=O)NCC(c3ccccc3)N(C)C)c3ccccc3n2)cc1OC (centres undefined),1320 nM
20,C=CCn1c(SCc2c(C)noc2C)nc2sc(C)c(C)c2c1=O,891 nM
21,CC1(C(=O)Nc2ccc3c(c2)OCO3)Cc2c(-c3ccc4c(c3)OCO4)ccnc2O1 (centres undefined),7650 nM
22,CCOC(=O)c1[nH]c(C)c(C(=O)OCC(=O)NC(C)c2ccc(F)cc2)c1C (centres undefined),3150 nM

row,SMILES,AC26
1,Cc1noc(C)c1-c1ccc(C(=O)NCc2cccnc2)c2occc12,4700 nM
2,COC(=O)c1ccc(C)c(NC(=O)CN(c2cc(OC)ccc2OC)S(C)(=O)=O)c1,641 nM
3,Cc1cc(-n2c(C)cc(C(=O)CCl)c2C)no1,2160 nM
4,COc1ccc(CCCNC(=O)C2Cc3c(-c4cccc(C(C)=O)c4)ccnc3O2)cc1 (centres undefined),12600 nM
5,COc1cccc(/C=N/NC(=O)c2cc3c(OC)c(OC)ccc3[nH]2)c1OC,5850 nM
6,COc1ccc(OC)c2nc3c(C(=O)NCCN(C)C)cccc3nc12,187 nM
7,O=C(CNc1cccc2ccccc12)N/N=C/C(Br)=C/c1ccccc1,17100 nM
8,CCn1c2ccccc2c2cc(NC(=O)COC(=O)c3ccc(O)cc3)ccc21,5820 nM
9,Nc1ccc(-c2cc(NC=O)c3ncc(-c4cccc(C(F)(F)F)c4)n3c2)cn1,3430 nM
10,CC1CC(C)CN(C(=O)/C=C/c2ccc([N+](=O)[O-])s2)C1 (centres undefined),8460 nM
11,CN(C)CCCN1C(=O)c2cccc3c([N+](=O)[O-])ccc(c23)C1=O,169 nM
12,CC(C)c1ccc(/C=N/NC(=O)c2ccccc2Cl)cc1,1910 nM
13,O=C(/C=C/Sc1ccccc1)c1ccccc1,2150 nM
14,COc1cccc(CNC(=O)COC(=O)c2ccc(-c3ccc(O)cc3)cc2)c1,685 nM
15,COC(=O)c1ccc2c(=O)n(Cc3ccco3)c(SCC(=O)Nc3cc(C)on3)nc2c1,2190 nM
16,Cn1c(C(=O)NC2CCCCCC2)cc2c(=O)n(C)c3ccccc3c21,4470 nM
17,COCCNC(=S)N1CCc2cc(OC)c(OC)cc2C1c1cccs1 (centres undefined),455 nM
18,COc1cc(/C=N/Nc2nc3c(c(=O)n(C)c(=O)n3C)n2Cc2ccccc2)ccc1OC(=O)c1ccco1,10500 nM
19,O=C(N=Nc1c(O)[nH]c2ccc(Br)cc12)c1cc(-c2cccs2)nc2ccccc12,4850 nM
20,CC(=O)c1cccc(-c2ccnc3c2CC(C(=O)NCc2cccs2)O3)c1 (centres undefined),1070 nM
21,CCOC(=O)c1c(NC(=O)c2cc3n(n2)C(C(F)(F)F)CC(c2cccs2)N3)sc(C)c1C (centres undefined),5140 nM
22,COc1ccc(NC(=O)C(=O)c2cn(CC(=O)N3CCCC3)c3ccccc23)cc1,105 nM

row,SMILES,AC26
1,CCn1c(=S)[nH]c2cc(S(=O)(=O)N3CCCCC3)ccc21,1090 nM
2,CCN1Cc2c(/C=C/c3ccccc3)nc3ccc(OC)cc3c2N(c2cccc(Cl)c2)C1,14300 nM
3,Cc1ccc(/C=N/NC(=O)CCn2nc(C)cc2C)c(C)c1,5510 nM
4,COc1cc2c(cc1OC)C(c1cc(Br)ccc1F)N(C(=O)CCl)CC2 (centres undefined),2280 nM
5,CN(C)CCOc1nc(-c2ccccc2)nc2c1oc1ccccc12,2700 nM
6,COc1cccc(C(NC(C)=O)c2nc(-c3ccccc3OC)cs2)c1 (centres undefined),452 nM
7,COc1ccc(Nc2cc(C)nc(-n3nc(C)cc3C)n2)cc1,193 nM
8,Cc1c2cnccc2c(C)c2c1oc1ccccc12,2820 nM
9,Oc1cccc(Nc2c3ccccc3nc3ccccc23)c1,1440 nM
10,COc1cc(C(=O)Nc2cc3c(cc2N2CCCCC2)n(C)c(=O)n3C)cc(OC)c1OC,3870 nM
11,Cc1ccc2nc(-c3ccncc3)cc(C(=O)Nc3ccncc3)c2c1,3050 nM
12,CC1=CC(C)[C@H](/C=N/n2c(=O)[nH]c3c([nH]c4ccc(C)cc43)c2=O)C(C)C1 (some centres undefined),4040 nM
13,COc1ccccc1-c1csc(C(NC(C)=O)c2ccc(F)c(F)c2)n1 (centres undefined),341 nM
14,CN(C)S(=O)(=O)c1ccc(N2CCCC2)c(C(=O)Nc2cccc(F)c2)c1,931 nM
15,CCn1c2ccccc2c2cc(NC(=O)COC(=O)c3ccccc3F)ccc21,4200 nM
16,C=CCOc1ccccc1C(=O)/C=C1/C(=O)Nc2ccccc21,3000 nM
17,Cc1nc2ncccn2c1-c1csc(Nc2ccc(N(C)C)cc2)n1,31.5 nM
18,CC(C)(C)S(=O)(=O)N1C[C@H]2CC/C=C\C/C(c3ccccc3)=C\2[C@@H]1CCO,1030 nM
19,C/C(=N\O)C(=O)C(CN1CCCCC1)CN1CCCCC1,1500 nM
20,Cc1nnc(NC(=O)CSc2nc(C(C)C)nc3ccccc23)s1,971 nM
21,COc1ccc(S(=O)Cc2ccc(C(=O)N3CCN(c4cccc(C)c4C)CC3)o2)cc1 (centres undefined),1430 nM
22,CCOc1ncccc1C(=O)Nc1cc2c(cc1Br)OCCO2,7780 nM

row,SMILES,AC26
1,Oc1ccc(Nc2nc(NCC3CCCO3)c3ccccc3n2)cc1 (centres undefined),1110 nM
2,Cc1ccsc1CNc1ncnc2ccc(-c3c(C)noc3C)cc12,102 nM
3,COc1ccc(-c2nc3c(s2)CCc2onc(-c4ccc(OC)cc4)c2-3)cc1,14400 nM
4,COc1ccc(CCn2c(=N)c(C(=O)NCC3CCCO3)cc3c(=O)n4cccc(C)c4nc32)cc1OC (centres undefined),652 nM
5,Cc1cc(=O)[nH]c2c(C)cc(S(=O)(=O)N3CCCCC3)cc12,4410 nM
6,CC(=O)Nc1ccc(CC(=O)NCCC(c2ccccc2)c2ccccc2)cc1,11300 nM
7,COCCNc1nc(NCc2ccccc2)nc2ccsc12,136 nM
8,O=C(N/N=C\c1cn(-c2ccccc2)nc1-c1ccccc1)c1ccc(Br)o1,9570 nM
9,CCOC(=O)c1ccccc1Nc1cn(C(C)=O)c2ccccc12,1790 nM
10,O=c1[nH]c(O)c(/C=C2/C=CC(c3cc(Cl)ccc3Cl)=N2)c(=O)[nH]1,2610 nM
11,CC(=O)C1=C(O)C(=O)N(c2ccc(Br)cn2)C1c1ccc(Br)cc1 (centres undefined),491 nM
12,c1ccc(CNc2nc(NCCc3ccncc3)c3sccc3n2)cc1,1120 nM
13,Cc1cc(N2CCCCC2)nc(NCc2ccccc2)n1,> 19500 nM (inactive)
14,C#CC[N+](C)(C)CCCCCCCCC,6070 nM
15,COc1ccc(C2=NOC(C(=O)NCc3cccs3)C2)cc1 (centres undefined),1010 nM
16,Cc1cccc(C(=O)Nc2cc(S(=O)(=O)N3CCOCC3)ccc2N2CCCC2)c1,173 nM
17,CC(=O)Nc1ccc(NC(=O)c2ccc(-c3c(C)noc3C)c3ccoc23)cc1,1350 nM
18,CC(=O)N1CCc2c(sc(NC(=O)c3ccc4c(c3)OCCO4)c2C#N)C1,1950 nM
19,Cn1nc(C(F)(F)F)c(/C=N/OC(=O)c2ccccc2Cl)c1SCc1ccccc1Cl,817 nM
20,Cc1ccc(NC(=O)c2cc(S(=O)(=O)N(C)C)ccc2N2CCCC2)cc1F,109 nM
21,Cc1ccc2nsnc2c1NC(=O)c1ccc(-c2cc(Cl)ccc2Cl)o1,846 nM
